Results on one substance are retold here after patent publication US20160038588A1, “Myostatin Antagonism in Human Subjects” (AMGEN INC., priority 2013, published 2016).

This assay deals with men with prostate cancer receiving ADT. Kind of assay: Clinical study: pharmacodynamics (DXA lean and fat mass, CT lower extremity muscle size). Format: in vivo, human. The procedure: Eligible subjects were men with a documented history of prostate cancer; no documented distant metastasis at time of enrollment; received ADT (androgen deprivation therapy) for at least 6 months as a primary, adjuvant, or salvage treatment for prostate cancer prior to enrollment; if ADT was being administered intermittently, serum total testosterone level <50 ng/dL at screening; a stable prostate-specific antigen (PSA) as determined by the investigator; no history of primary muscle disease, myopathy, or neuropathy; weight ≦137 kg (300 lbs) and height ≦78 inches; Eastern Cooperative Oncology Group (ECOG) performance status of 0 at screening; no clinically significant elevated creatine phosphokinase (CPK); glomerular filtration rate (GFR) >40 mL/min; aspartate aminotransferase (AST) or alanine aminotransferase (ALT)<2.5× upper limit of normal.
This planned enrollment assumed a between treatment group difference of 1.5% for the secondary endpoint, percent change in lean body mass from baseline to week 5 (standard deviation of 2.1; Smith et al. 2001), and provided 80% power for a 1-sided test at the 10% significance level. An analysis of variance (ANOVA) was used to compare percent change from baseline between treatment groups (3 mg/kg AMG 745 versus placebo).
Analyses of the pharmacodynamic effects were limited to the 3-mg/kg dose cohort and the study was designed to have 80% power to detect a statistically significant between-treatment-group difference in percent change in lean body mass.

[1] abbreviates: 3 mg/kg, baseline to EOS (day 29).
Where [2] appears, read: 3 mg/kg, baseline to follow-up visit.
Setting [3] is: CT scan, least squares mean (SE).
[4] abbreviates: DXA scan, ad hoc analysis, least squares mean (SE).
[5] abbreviates: lean body mass minus the head, DXA scan, least squares mean (SE).

For “AMG 745: anti-myostatin peptibody: human IgG1 Fc fused at C-terminus via GGGGGAQ linker to peptide SEQ ID NO:311; chain SEQ ID NO:635”, under “3 mg/kg weekly ×4, baseline to EOS (day 29)”, the “percent change in lean body mass, least squares mean (SE)” value is 1.5% (0.5%). For the same substance, under setting [1], the “lower extremity muscle size percent change” value is listed as 1.2% (0.7%) and the “percent change in fat body mass” value is recorded as −0.7% (0.2%). Moreover, the “fat body mass, between-group difference vs placebo” value (3 mg/kg, baseline to EOS (day 29), p=0.005) is on record as −1.0% (0.3%). Moreover, for the setting “3 mg/kg, baseline to EOS (day 29), p=0.065”, the “lower extremity muscle size, between-group difference vs placebo” value was 1.8% (1.0%). Besides, under setting [2], the “lower extremity muscle size percent change” value is 2.7% (0.7%) and the “percent change in fat body mass” value is listed as −0.8% (0.3%). The “lower extremity muscle size, between-group difference vs placebo” value (3 mg/kg, baseline to follow-up visit, p=0.007) is reported as 2.8% (1.0%). In addition, where the note is “3 mg/kg, follow-up visit 1 month after day 29”, the “percent change in lean body mass, least squares mean (SE)” value was 1.9% (0.5%). In addition, where the note is “AMG 745 vs placebo, CT, least squares mean (SE), p value 0.007”, the “Lower-extremity Muscle Size, Between-group difference in percent change, Baseline to Follow-up Visit [Day 58]” value is 2.8% (1.0%). For the same substance, under “AMG 745 vs placebo, CT, least squares mean (SE), p value 0.065”, the “Lower-extremity Muscle Size, Between-group difference in percent change, Baseline to EOS [Day 29]” value is 1.8% (1.0%). Also, the “Whole Body Fat, Between-group difference in percent change, Baseline to EOS [Day 29]” value (AMG 745 vs placebo, DXA, ad hoc, least squares mean (SE), p value 0.005) is given as −1.0% (0.3%). Besides, the “Whole Body Fat, Between-group difference in percent change, Baseline to Follow-up Visit [Day 58]” value (AMG 745 vs placebo, DXA, ad hoc, least squares mean (SE), p value 0.068) is −0.7% (0.4%). Moreover, the “Lean Body Mass, Between-group difference in percent change, Baseline to EOS [Day 29]” value (AMG 745 vs placebo, DXA, least squares mean (SE), p value 0.008) is recorded as 2.2% (0.8%). The “Lean Body Mass, Between-group difference in percent change, Baseline to Follow-up Visit [Day 58]” value (AMG 745 vs placebo, DXA, least squares mean (SE), p value 0.023) is listed as 1.7% (0.7%). Besides, under setting [3], the “Lower-extremity Muscle Size, Percent Change From Baseline to EOS [Day 29]” value was 1.2% (0.7%) and the “Lower-extremity Muscle Size, Percent Change From Baseline to Follow-up Visit [Day 58]” value was 2.7% (0.7%). In addition, under setting [4], the “Whole Body Fat, Percent Change From Baseline to EOS [Day 29]” value is −0.7% (0.2%) and the “Whole Body Fat, Percent Change From Baseline to Follow-up Visit [Day 58]” value was −0.8% (0.3%). Besides, under setting [5], the “Lean Body Mass, Percent Change From Baseline to EOS [Day 29]” value is reported as 1.5% (0.5%) and the “Lean Body Mass, Percent Change From Baseline to Follow-up Visit [Day 58]” value is listed as 1.9% (0.5%).
